Values joined by “and” are separate entries in the source; they are usually repeats but may differ in a detail not shown here. Identical values can stand only once.
Legend:
Assay type in all cases: physicochemical
[1] = Hygroscopicity measurements (DVS sorption/desorption profiles); details: 25° C.
Protocol: The sorption/desorption profiles of the forms of the present invention were tested at 25° C. under 0-90% relative humidity. The forms of the present invention were classified according to the following criteria: Deliquescent: Sufficient water is absorbed to form a liquid. […] Hygroscopic: Increase in mass is less than 15% and equal to or greater than 2%. Slightly hygroscopic: Increase in mass is less than 2% and equal to or greater than 0.2%. Non-hygroscopic: Increase in mass is less than 0.2%.

[2] = Solid stability measurements (appearance, assay and total related substances by HPLC); details: for Remaining (%): one value for both samples, vs −20° C. control; for Appearance / TRS (%): samples 1 and 2
Protocol: The detailed chromatographic conditions are listed hereinbelow. The typical retention time of febuxostat main peak is 8.2 min. [table] Testing conditions: 40° C., 60° C., 40° C./RH 75%, 60° C./RH 75%, light Testing procedure: About 3 mg of a febuxostat form were weighed in a glass vial and stored under the different conditions for 1 week and 2 weeks, separately. The same febuxostat form was stored at −20° C. as control. The test was conducted in duplication. The physical appearance, assay and total related substances of each of the febuxostat forms were measured by HPLC at the end of the first and second weeks.

[3] = Physical stability measurements (XRPD, DSC, TGA)
Protocol: Testing conditions: 40° C., 60° C., 40° C./RH 75%, 60° C./RH 75%, light
Testing procedure: About 50 mg of a febuxostat form were weighed in glass vial for testing the physical stability and were stored under different conditions for 1 week and 2 weeks, separately. The same febuxostat form was stored at −20° C. as control. XRPD, DSC and TGA of each of the febuxostat forms were measured at the end of the first and second weeks.

[4] = Bulk and tapped density measurements
Protocol: Bulk density testing: A febuxostat form in an amount which is sufficient to complete the test was passed through a 1.0 mm (No. 18) screen to break up agglomerates that may have formed during storage. The febuxostat form was then weighed (M) and the powder was added into a 10 mL graduated cylinder. The powder was carefully leveled without compacting, and the unsettled apparent volume, Vo, was read. The bulk density, in g per mL, was calculated by the formula: Bulk Density=M/Vo Tapped density testing: A febuxostat form in an amount which is sufficient to complete the test was passed through a 1.0 mm (No. 18) screen to break up agglomerates that may have formed during storage. The febuxostat form was then weighed and the powder was added into a 10 mL graduated cylinder. The powder was carefully leveled without compacting. The cylinder was tapped 500 times initially and the tapped volume, Va, was measured to the nearest graduated unit. The tapping was then repeated for additional 750 times and the tapped volume, Vb, was measured to the nearest graduated unit. If the difference between the two volumes was less than 2%, Vb was taken as the final tapped volume, Vf. The tapped density, in g per mL, was calculated by the formula: Tapped Density=M/Vf

Cc1nc(-c2ccc(OCC(C)C)c(C#N)c2)sc1C(=O)O [Form V, 2-(3-cyano-4-isobutoxyphenyl)-4-methyl-5-thiazolecarboxylic acid]
Hygroscopicity classification ([1]; 0-90% relative humidity): very hygroscopic | weight loss after sorption-desorption cycle ([1]; DVS, might be attributed to DMSO evaporation at high humidity): about 10% | Change in Mass (%) - ref, Desorption ([1]; Target % P/P0 0.0): −9.66% | Change in Mass (%) - ref, Sorption ([1]; Target % P/P0 0.0): 0.00% | Change in Mass (%) - ref, Desorption ([1]; Target % P/P0 10.0): −8.56% | Change in Mass (%) - ref, Hysteresis ([1]; Target % P/P0 10.0): −8.64% | Change in Mass (%) - ref, Sorption ([1]; Target % P/P0 10.0): 0.08% | Change in Mass (%) - ref, Desorption ([1]; Target % P/P0 20.0): −8.49% | Change in Mass (%) - ref, Hysteresis ([1]; Target % P/P0 20.0): −8.60% | Change in Mass (%) - ref, Sorption ([1]; Target % P/P0 20.0): 0.12% | Change in Mass (%) - ref, Desorption ([1]; Target % P/P0 30.0): −8.40% | Change in Mass (%) - ref, Hysteresis ([1]; Target % P/P0 30.0): −8.53% | Change in Mass (%) - ref, Sorption ([1]; Target % P/P0 30.0): 0.14% | Change in Mass (%) - ref, Desorption ([1]; Target % P/P0 40.0): −8.30% | Change in Mass (%) - ref, Hysteresis ([1]; Target % P/P0 40.0): −8.50% | Change in Mass (%) - ref, Sorption ([1]; Target % P/P0 40.0): 0.20% | Change in Mass (%) - ref, Desorption ([1]; Target % P/P0 50.0): 1.16% | Change in Mass (%) - ref, Hysteresis ([1]; Target % P/P0 50.0): 0.93% | Change in Mass (%) - ref, Sorption ([1]; Target % P/P0 50.0): 0.23% | Change in Mass (%) - ref, Desorption ([1]; Target % P/P0 60.0): 7.34% | Change in Mass (%) - ref, Hysteresis ([1]; Target % P/P0 60.0): 7.02% | Change in Mass (%) - ref, Sorption ([1]; Target % P/P0 60.0): 0.31% | Change in Mass (%) - ref, Desorption ([1]; Target % P/P0 70.0): 14.03% | Change in Mass (%) - ref, Hysteresis ([1]; Target % P/P0 70.0): 12.45% | Change in Mass (%) - ref, Sorption ([1]; Target % P/P0 70.0): 1.59% | Change in Mass (%) - ref, Desorption ([1]; Target % P/P0 80.0): 23.42% | Change in Mass (%) - ref, Hysteresis ([1]; Target % P/P0 80.0): 7.98% | Change in Mass (%) - ref, Sorption ([1]; Target % P/P0 80.0): 15.44% | Change in Mass (%) - ref, Desorption ([1]; Target % P/P0 90.0): 36.92% | Change in Mass (%) - ref, Sorption ([1]; Target % P/P0 90.0): 36.92% | change of assay and TRS (in words) ([2]; 40° C., 60° C., 40° C./75% RH, 60° C./75% RH at end of the first and second weeks): no significant change | Remaining (%) ([2]; 40° C., 7 d): 100.62% | Appearance ([2]; 40° C., 7 d): No change | TRS (%) ([2]; 40° C., 7 d): 0.45% | Remaining (%) ([2]; 40° C., 14 d): 100.01% | Appearance ([2]; 40° C., 14 d): No change | TRS (%) ([2]; 40° C., 14 d): 0.46% and 0.47% | Remaining (%) ([2]; 40° C./75% RH, 7 d): 99.40% | Appearance ([2]; 40° C./75% RH, 7 d): No change | TRS (%) ([2]; 40° C./75% RH, 7 d): 0.47% and 0.48% | Remaining (%) ([2]; 40° C./75% RH, 14 d): 99.03% | Appearance ([2]; 40° C./75% RH, 14 d): No change | TRS (%) ([2]; 40° C./75% RH, 14 d): 0.50% and 0.52% | Remaining (%) ([2]; 60° C., 7 d): 100.65% | Appearance ([2]; 60° C., 7 d): No change | TRS (%) ([2]; 60° C., 7 d): 0.53% and 0.51% | Remaining (%) ([2]; 60° C., 14 d): 100.06% | Appearance ([2]; 60° C., 14 d): No change | TRS (%) ([2]; 60° C., 14 d): 0.54% and 0.53% | Remaining (%) ([2]; 60° C./75% RH, 7 d): 98.20% | Appearance ([2]; 60° C./75% RH, 7 d): No change | TRS (%) ([2]; 60° C./75% RH, 7 d): 0.51% and 0.52% | Remaining (%) ([2]; 60° C./75% RH, 14 d): 98.87% | Appearance ([2]; 60° C./75% RH, 14 d): No change | TRS (%) ([2]; 60° C./75% RH, 14 d): 0.52% and 0.53% | Remaining (%) ([2]; Light, 7 d): 97.74% | Appearance ([2]; Light, 7 d): Light yellow | TRS (%) ([2]; Light, 7 d): 1.02% and 1.18% | Remaining (%) ([2]; Light, 14 d): 94.06% | Appearance ([2]; Light, 14 d): Light yellow | TRS (%) ([2]; Light, 14 d): 5.99% and 5.08% | Appearance ([2]; −20° C. (control), 7 d): No change | TRS (%) ([2]; −20° C. (control), 7 d): 0.40% and 0.39% | Appearance ([2]; −20° C. (control), 14 d): No change | TRS (%) ([2]; −20° C. (control), 14 d): 0.42% and 0.41% | physical stability (XRPD, DSC, TGA) ([3]; 40° C., 60° C. and light at the end of the first and second week): stable | physical stability (XRPD, DSC, TGA), form conversion ([3]; 40° C./75% RH at the end of the first week): partially converted to form G | physical stability (XRPD, DSC, TGA), form conversion ([3]; 40° C./75% RH at the end of the second week): completely converted to form G | physical stability (XRPD, DSC, TGA), form conversion ([3]; 60° C./75% RH at the end of the first and second weeks): completely converted to form G | Bulk Density [4]: 0.444 g/mL | Tapped Density [4]: 0.637 g/mL | bulk and tapped densities (in words) ([4]; compared among forms V, IX, XI and form G): adequate bulk and tapped densities

Source: US20130225830A1, “POLYMORPHS OF FEBUXOSTAT” (MAPI PHARMA LIMITED, priority 2010, published 2013)
